Laboratory results from patent publication US20100113535A1, “TREATMENT OF PRESBYOPIA WITH ALPHA- PICOLINIC ACID AND ITS ANALOGS” (The Department of Veterans Affairs Technology Transfer …, priority 2005, published 2010).
Where two headings read alike, the source gives them in different places.

What was measured:
[1] = test system: porcine lens epithelial (PLE) cells; assay: Toxicity of PA and its analogs to PLE cell growth (cell counts, 50% inhibitory concentration); format: cell-based; conditions: for IC50: Sus scrofa, 120 hours (five days) with substance, treated cell count equal to 50% of control
Protocol: FIG. 5. Toxicity of Picolinic Acid and its analogs in Pig Lens Epithelial Cells. Pig lens epithelial cells were plated in quadruplicate in 24 well trays at 5000 cells/well using minimal essential media plus 10% fetal calf serum (10% FCS MEM) with antibiotics. At 24 hours after plating, substances were added with a media change, at appropriate concentrations. Cells were allowed to grow for an additional 120 hours in the presence of the various substances. Cells were then counted, four dishes, in duplicate, and the cell counts were expressed as a percentage of the control cell counts.
Growth curve data were obtained from cells plated without any agents. Cell counts were performed daily on a total of eight wells per point, by combining four wells per count and performing counts in duplicate.
The toxicity of PA and its analogs to the PLE cells was tested according to the method of Senderoff et al. (66) PLE cells were plated in 24 well trays at 5000 cells per well in 1 mL of tissue culture medium (see above). The medium was changed at 24 hours, and new medium containing the analogs was added. Five days after addition of substances, cell counts were performed using a total of four wells per point, by combining two wells per count, and performing counts in duplicate. Results were expressed as a percentage of the untreated or control cell counts.

PLE cells = assay: Induction of apoptosis in PLE cells (DNA fragmentation detection kit); format: cell-based, porcine; conditions: for effect on monolayer growth, floating cells and DNA laddering staining: 48 hours, 3 mM picolinic acid, 0.3 mM fusaric acid; for state of cells at 72 hours: 3 mmol/L PA, 0.3 mmol/L FA, results not shown; for induction of apoptosis in PLE cells: discussion statement
Protocol: FIG. 6. Induction of Apoptosis in PLE cells. PLE cells were grown in 35 mm dishes in tissue culture. Analogs were added to media 24 hours after cells were plated. After 48 hours of incubation, floating or supernatant cells were spun onto slides and stained using the DNA fragmentation kit. The conditions are as follows: A. Control monolayer; B. Control stained supernatant; C. 3 mM picolinic acid monolayer; D. 3 mM picolinic acid stained supernatant; E. 0.3 mM fusaric acid monolayer; F. 0.3 mM fusaric acid stained supernatant.
The ability of PA and its analogs to induce apoptosis was detected with the DNA fragmentation detection kit (Oncogene Research Products, Boston, Mass.). One of the molecular effects of apoptosis is the formation of oligonucleosomal DNA fragments by DNA laddering (67). The kit includes a Klenow DNA polymerase that labels 3′-OH terminals of DNA, which are formed in the laddering process. Incorporated biotinylated nucleotides are then detected with a chromogenic labeling system of streptavidin-horseradish peroxidase diaminobenzidine. Cells were plated in 35-mm wells at a density of 50,000 cells per well. 24 hours after plating, analogs were added concurrently with fresh media. Pictures were taken after 48 hours of exposure to the analogs. Floating cells were washed and placed in Saccomanno's fixative (Shandon, Pittsburgh, Pa.), centrifuged onto Superfrost slides (Fisher Scientific, Pittsburgh, Pa.) with a CytoSpin centrifuge (Shandon, Pittsburgh, Pa.), and stained according to the protocol given.
To test for the role of apoptosis in the toxicity of PA and its analogs, the PLE cells were exposed to 0.3 mmol/L FA and 3 mmol/L of PA.

corneal endothelium = assay: Toxicity in corneal endothelium (Janus Green staining of pig corneas); conditions: for Janus Green staining relative to untreated control: 48 hours, corneal endothelium in 2% FCS M199; for Avg Abs650/SD (Janus Green stain eluted from trephine cut-outs of treated corneas): 48 hr in 2% FCS M-199, PA 3 mM, FA 0.3 mM, absorbance at 650 nm
Protocol: Testing of Toxicity in Corneal endothelium: To test for the effects of PA and FA on corneal endothelium, fresh corneas from pig eyes were aseptically dissected out, with a 2 mm scleral ring and placed in 2% FCS M-199 medium with antibiotics, as M-199 medium has previously been used for corneal experiments (84).
Times of incubation and concentrations which were used in the apoptosis experiment were implemented, i.e. 48 hours at 3 mM PA and 0.3 mM FA. Serum concentration of 2% was employed to maintain the corneal cells without undo stimulation. Corneas were rinsed with Hanks Balanced Salt Solution (HBSS) and stained for 90 seconds with 0.2 mL 1% Janus Green (85) in HBSS as a test for viability. The corneas were again rinsed. Negative controls were set up by placing corneas in 100% ethanol for 5 minutes prior to addition of Janus Green, to give staining in 100% “damaged” corneas. Using an 8 mm trephine, the central section of the cornea was punched out, and the dye was eluted with 2 ml 100% ethanol and the absorbance was measured at 650 nm. The Janus Green staining experiment of corneas was repeated twice. Duplicate samples were used for drug conditions and triplicate samples for controls. Janus green staining was also carried out on fresh cornea, for comparison purposes.

WI-38 cells = conditions: 0.5 mM fusaric acid, cited from earlier work
[2] = from FIG. 5, read-out: IC50 μg/mL
[3] = from FIG. 5, read-out: IC50 mmol/L

| Structure (SMILES) | IC50 [1, 2] | IC50 [1, 3] | times less toxic than PA ([1]; from IC50 data) | times more toxic than PA (on concentration basis) ([1]; from IC50 data) | effect on monolayer growth, floating cells and DNA laddering staining (PLE cells) | effect on monolayer growth, floating cells and DNA laddering staining (PLE cells; listed as FA) | state of cells at 72 hours (PLE cells) | induction of apoptosis in PLE cells (PLE cells) | Janus Green staining relative to untreated control (corneal endothelium) | Avg Abs650/SD (Janus Green stain eluted from trephine cut-outs of treated corneas) (corneal endothelium) | viability of confluent WI-38 cells (WI-38 cells; confluent cells, 48 hour incubation) | decrease in viability of logarithmically growing WI-38 cells (WI-38 cells; logarithmically growing cells, by 30 hours) | effect on monolayer growth, floating cells and DNA laddering staining (PLE cells; listed as PA) | state of cells at 72 hours (PLE cells; listed as PA) |
| --- | --- | --- | --- | --- | --- | --- | --- | --- | --- | --- | --- | --- | --- | --- |
| O=C(O)c1cccc(C(=O)O)n1 [Dipicolinic acid] | 185 µg/mL | 1.11 mmol/L | 2.5 times |  |  |  |  |  |  |  |  |  |  |  |
| CCCCc1ccc(C(=O)O)nc1 [Fusaric acid, fusaric acid] | 5.6 µg/mL | 0.031 mmol/L |  | about 15 times | many floating cells, with strong nuclear staining | significant cell death by the apoptotic pathway | no living cells were seen | rapidly induced apoptosis | stained less than the untreated control | 0.287 ± 0.011 | no significant drop in viability | 76% |  |  |
| O=C(O)c1cccnc1 [Nicotinic acid, nicotinic acid] | 539 µg/mL | 4.38 mmol/L |  |  |  |  |  |  |  |  |  |  |  |  |
| O=C(O)c1ccccn1 [Picolinic acid] | 55.3 µg/mL | 0.449 mmol/L |  |  | inhibits growth of the monolayer with few floating cells |  | many floating cells | rapidly induced apoptosis | stained less than the untreated control | 0.321 ± 0.041 |  |  | inhibition of cell growth but little cell death | very few cells were still attached |
